Measured values published in PubChem BioAssay AID1745844 (Carcinogenic Potency Database (CPDB), 2022).
Activity calls are given as the source filed them. The rule behind the calls is not given here.

Test system: rodent lifetime carcinogenesis bioassay, tumor incidence TD50
Test: carcinogenic potency in animals, long-term in vivo studies, CPDB compilation (AID 1745844)

Question: Which results are given for `Nc1ccc(N=Nc2ccccc2)c(N)n1`?
Answer: TD50 (mouse, strain B6C3F1, females, in feed, site: any site (literature study), lesion: several types, types named in the paper, dosed 80 weeks, study length 105 weeks): 89.7 mg/kg/day; TD50 (mouse, strain B6C3F1, females, in feed, site: liver, lesion: hepatocellular adenoma + hepatocellular carcinoma + neoplastic nodule, dosed 80 weeks, study length 105 weeks): 71.1 mg/kg/day; TD50 (mouse, strain B6C3F1, females, in feed, site: liver, lesion: hepatocellular adenoma + hepatocellular carcinoma, dosed 80 weeks, study length 105 weeks): 71.1 mg/kg/day; TD50 (mouse, strain B6C3F1, females, in feed, site: liver, lesion: hepatocellular carcinoma, dosed 80 weeks, study length 105 weeks): 132 mg/kg/day; TD50 (mouse, strain B6C3F1, females, in feed, site: lung, lesion: alveolar/bronchiolar adenoma + alveolar/bronchiolar carcinoma, dosed 80 weeks, study length 105 weeks): 4650 mg/kg/day; TD50 (mouse, strain B6C3F1, males, in feed, site: any site (literature study), lesion: several types, types named in the paper, dosed 80 weeks, study length 105 weeks): 496 mg/kg/day (inactive); TD50 (mouse, strain B6C3F1, males, in feed, site: liver, lesion: hepatocellular adenoma + hepatocellular carcinoma + neoplastic nodule, dosed 80 weeks, study length 105 weeks): 811 mg/kg/day; TD50 (mouse, strain B6C3F1, males, in feed, site: lung, lesion: alveolar/bronchiolar adenoma + alveolar/bronchiolar carcinoma, dosed 80 weeks, study length 105 weeks): 1300 mg/kg/day; TD50 (rat, strain Fischer 344, females, in feed, site: colon, lesion: adenocarcinoma, NOS, dosed 78 weeks, study length 105 weeks): 687 mg/kg/day; TD50 (rat, strain Fischer 344, males, in feed, site: colon + rectum, lesion: adenocarcinoma, NOS + adenoma, NOS, dosed 78 weeks, study length 104 weeks): 303 mg/kg/day; TD50 (rat, strain Fischer 344, males, in feed, site: colon + rectum, lesion: adenocarcinoma, NOS, dosed 78 weeks, study length 104 weeks): 333 mg/kg/day; TD50 (rat, strain Fischer 344, males, in feed, site: liver, lesion: hepatocellular adenoma + hepatocellular carcinoma + neoplastic nodule, dosed 78 weeks, study length 104 weeks): 2170 mg/kg/day

Question: What does the source list for `O=C1c2ccccc2C(=O)c2c(O)cccc21`?
Answer: TD50 (rat, strain ACI/n, males, in feed, site: cecum, lesion: adenocarcinoma, dosed 68 weeks, study length 68 weeks): 619 mg/kg/day; TD50 (rat, strain ACI/n, males, in feed, site: cecum, lesion: adenoma, dosed 68 weeks, study length 68 weeks): 277 mg/kg/day; TD50 (rat, strain ACI/n, males, in feed, site: colon, lesion: adenocarcinoma, dosed 68 weeks, study length 68 weeks): 246 mg/kg/day; TD50 (rat, strain ACI/n, males, in feed, site: colon, lesion: adenoma, dosed 68 weeks, study length 68 weeks): 219 mg/kg/day; TD50 (rat, strain ACI/n, males, in feed, site: forestomach, lesion: papilloma, dosed 68 weeks, study length 68 weeks): 789 mg/kg/day; TD50 (rat, strain ACI/n, males, in feed, site: large intestine, lesion: several types, types named in the paper, dosed 68 weeks, study length 68 weeks): 59.2 mg/kg/day; TD50 (rat, strain ACI/n, males, in feed, site: liver, lesion: hepatocellular carcinoma, dosed 68 weeks, study length 68 weeks): 789 mg/kg/day; TD50 (rat, strain ACI/n, males, in feed, site: liver, lesion: neoplastic nodule, dosed 68 weeks, study length 68 weeks): 219 mg/kg/day; TD50 (rat, strain ACI/n, males, in feed, site: liver, lesion: several types, types named in the paper, dosed 68 weeks, study length 68 weeks): 219 mg/kg/day; TD50 (rat, strain ACI/n, males, in feed, site: stomach, glandular, lesion: adenoma, dosed 68 weeks, study length 68 weeks): 3340 mg/kg/day; TD50 (rat, strain ACI/n, males, in feed, site: stomach, lesion: several types, types named in the paper, dosed 68 weeks, study length 68 weeks): 619 mg/kg/day; TD50 (rat, strain Fischer 344, males, in feed, site: cecum, lesion: adenocarcinoma, dosed 78 weeks, study length 78 weeks): 432 mg/kg/day; TD50 (rat, strain Fischer 344, males, in feed, site: colon, lesion: adenocarcinoma, dosed 78 weeks, study length 78 weeks): 432 mg/kg/day; TD50 (rat, strain Fischer 344, males, in feed, site: colon, lesion: several types, types named in the paper, dosed 78 weeks, study length 78 weeks): 432 mg/kg/day; TD50 (rat, strain Fischer 344, males, in feed, site: large intestine, lesion: several types, types named in the paper, dosed 78 weeks, study length 78 weeks): 222 mg/kg/day

Question: Which results are given for `Cc1c(O)cc2c(c1C)OC(C)(CCCC(C)CCCC(C)CCCC(C)C)CC2` (stereo not drawn)?
Answer: TD50 (mouse, strain B6C3F1, males, in feed, site: liver, lesion: hepatocellular carcinoma, dosed 96 weeks, study length 96 weeks): 5220 mg/kg/day; TD50 (mouse, strain B6C3F1, males, in feed, site: liver, lesion: several types, types named in the paper, dosed 96 weeks, study length 96 weeks): 3610 mg/kg/day

Question: What does the source list for `CC=NN(C)C=O`?
Answer: TD50 (mouse, strain Swiss albino, females, by gavage, site: clitoral gland, lesion: several types, types named in the paper, dosed 52 weeks, study length 109 weeks): 38.2 mg/kg/day; TD50 (mouse, strain Swiss albino, females, by gavage, site: clitoral gland, lesion: squamous-cell carcinoma, dosed 52 weeks, study length 109 weeks): 46.4 mg/kg/day; TD50 (mouse, strain Swiss albino, females, by gavage, site: forestomach, lesion: several types, types named in the paper, dosed 52 weeks, study length 109 weeks): 28 mg/kg/day; TD50 (mouse, strain Swiss albino, females, by gavage, site: forestomach, lesion: squamous-cell papilloma, dosed 52 weeks, study length 109 weeks): 32.4 mg/kg/day; TD50 (mouse, strain Swiss albino, females, by gavage, site: liver, lesion: hepatoma, dosed 52 weeks, study length 109 weeks): 28 mg/kg/day (inactive); TD50 (mouse, strain Swiss albino, females, by gavage, site: lung, lesion: adenocarcinoma, dosed 52 weeks, study length 109 weeks): 19.6 mg/kg/day; TD50 (mouse, strain Swiss albino, females, by gavage, site: lung, lesion: adenoma, dosed 52 weeks, study length 109 weeks): 7.37 mg/kg/day; TD50 (mouse, strain Swiss albino, females, by gavage, site: lung, lesion: several types, types named in the paper, dosed 52 weeks, study length 109 weeks): 5.66 mg/kg/day; TD50 (mouse, strain Swiss albino, males, by gavage, site: liver, lesion: hepatoma, dosed 52 weeks, study length 79 weeks): 11 mg/kg/day (inactive); TD50 (mouse, strain Swiss albino, males, by gavage, site: lung, lesion: adenoma, dosed 52 weeks, study length 79 weeks): 13.7 mg/kg/day; TD50 (mouse, strain Swiss albino, males, by gavage, site: lung, lesion: several types, types named in the paper, dosed 52 weeks, study length 79 weeks): 14.4 mg/kg/day; TD50 (mouse, strain Swiss albino, males, by gavage, site: preputial gland, lesion: fibrosarcoma, dosed 52 weeks, study length 79 weeks): 21.3 mg/kg/day; TD50 (mouse, strain Swiss albino, males, by gavage, site: preputial gland, lesion: several types, types named in the paper, dosed 52 weeks, study length 79 weeks): 1.61 mg/kg/day; TD50 (mouse, strain Swiss albino, males, by gavage, site: preputial gland, lesion: squamous-cell carcinoma, dosed 52 weeks, study length 79 weeks): 2.17 mg/kg/day

Question: `C=CCOc1ccc(CC(=O)O)cc1Cl` was tested. Which carcinogen call (rat, strain Wistar, females, in feed, site: any site (literature study), lesion: several types, types named in the paper, dosed 104 weeks, study length 104 weeks) did it give?
Answer: negative (inactive)

Question: What about the carcinogen call (rat, strain Wistar, females, in feed, site: liver, lesion: several types, types named in the paper, dosed 104 weeks, study length 104 weeks) of the same compound?
Answer: negative (inactive)

Question: What about the TD50 (rat, strain Wistar, females, in feed, site: ovary, lesion: several types, types named in the paper, dosed 104 weeks, study length 104 weeks) of the same compound?
Answer: 390 mg/kg/day (inactive)

Question: What about the carcinogen call (rat, strain Wistar, males, in feed, site: any site (literature study), lesion: several types, types named in the paper, dosed 104 weeks, study length 104 weeks) of the same compound?
Answer: negative (inactive)

Question: And the carcinogen call (rat, strain Wistar, males, in feed, site: liver, lesion: several types, types named in the paper, dosed 104 weeks, study length 104 weeks)?
Answer: negative (inactive)
